Results taken from patent US4461891A, “2-β-D-Ribofuranosylthiazole-4-carboxamidine compounds” (Brigham Young University, priority 1983, dated 1984).

Assays:
[1] = tested on: purine nucleoside phosphorylase; test: purine nucleoside phosphorylase (PNP-4) test: formation of [14C]-hypoxanthine from [14C]-inosine; assay type: biochemical; conditions: human erythrocytes as the source of enzyme; [14C]-inosine substrate
Description: In particular, the compound, in a standard protocol, patterned after that reported in Biomedicine, 33, 39-41(1980), has been shown typically to inhibit the formation of [^14 C]-hypoxanthine from [^14 C]-inosine using human erythrocytes as the source of enzyme. […] Since T-cells play a central role in immune response, use of the compounds of the invention is contemplated for the immunoregulation of autoimmune disease Such as rheumatoid arthritis, systemic lupus erythematosus, and inflammatory bowel disease. The present invention in another preferred aspect therefore relates to compositions containing at least one compound of the invention in treating disease such as autoimmune disease characterized by abnormal immune response in warm blooded animals. According to this aspect of the invention, the properties of 2-β-D-ribofuranosylthiazole-4-carboxamidines are utilized by administering to a warm blooded animal an effective amount of a pharmaceutical composition containing as the active ingredient at least about 0.1 percent by weight, based on the total weight of the composition of at least one such compound of the invention.

[2] = tested on: CEM T-lymphoblasts; test: T-cell test with 2'-deoxyguanosine, CEM; assay type: cell-based; conditions: with 2'-deoxyguanosine (10 micromoles), read-out: ED50 (toxic for T-lymphoblasts)
[3] = tested on: T-cells; test: T-cell test: selective cytotoxicity in the presence of 2'-deoxyguanosine; assay type: cell-based
[4] = tested on: MOLT-4; test: T-cell test with 2'-deoxyguanosine, MOLT-4; assay type: cell-based; conditions: with 2'-deoxyguanosine (10 micromoles), read-out: ED50 (toxic for T-lymphoblasts)
[5] = tested on: HSB; test: T-cell test with 2'-deoxyguanosine, HSB; assay type: cell-based; conditions: with 2'-deoxyguanosine (10 micromoles), read-out: ED50 (toxic for T-lymphoblasts)

SMILES: Cl.N=C(N)c1csc([C@@H]2O[C@H](CO)[C@@H](O)[C@H]2O)n1 [Example 1, 2-β-D-Ribofuranosylthiazole-4-Carboxamidine, hydrochloride]
- concentration at which total inhibition was achieved [1]: less than 300 micromoles
- IC50 [2]: ~77 µM
- selective cytotoxicity for T-cells [3]: selectively cytotoxic for T-cells
- IC50 [4]: ~27 µM
- IC50 [5]: ~7 µM
